PMC6278366, “Synthesis and Evaluation of Anticancer Activities of Novel C-28 Guanidine-Functionalized Triterpene Acid Derivatives” (Molecules, 2018)
Structures can show the parent of a compound that is named as a salt.

How the values were obtained:
[1] = test system: normal human fibroblasts; experiment: Cytotoxicity assay (7-AAD viability, flow cytometry), normal fibroblasts; type: cell-based; conditions: Homo sapiens, Fibroblast, mean ± SE, at least three experiments in duplicate
[2] = test system: Jurkat cells; experiment: Annexin V/7-AAD apoptosis assay by flow cytometry; type: cell-based, human; conditions: 48 h
Procedure: Apoptosis was determined by flow cytometric analysis of Annexin V and 7-aminoactinomycin D staining. Briefly, 200 μL of Guava Nexin reagent (Millipore, Bedford, MA, USA) was added to 5 × 10^5 cells in 200 μL, and the cells were incubated with the reagent for 20 min at room temperature in the dark. […] At the end of incubation, the cells were analyzed on NovoCyteTM 2000 FlowCytometry System (ACEA). Different states of cell death were defined as follows: normal cells are localized in the lower-left quadrant (Annexin V^−/PI^−); early apoptotic cells are in the lower-right quadrant (Annexin V^+/PI^−); late apoptotic cells and necrotic cells are in the upper-right quadrant (Annexin V^+/PI^+); and necrotic cells are in the upper-left quadrant (Annexin V^−/PI^+).
Figure 2 AnnexinV/7-AAD staining upon induction of apoptosis in Jurkat cells. […] Then, the cells were harvested, stained with Annexin V/7-AAD and analyzed by flow cytometry. The experiments were performed three times, and the results of the representative experiments are shown. The first cytogram represents an untreated cell sample (A); after incubation with dihydrobetulinic acid for 24 h (B) and for 48 h (C); after incubation with compound 15 for 24 h (D) and for 48 h (E); after incubation with compound 15c for 24 h (F) and for 48 h (G); after incubation with compound 18c for 24 h (H) and for 48 h (I); after incubation with compound 20c for 24 h (J) and for 48 h (K). Q7-1, necrotic cells; Q7-2, late apoptotic cells; Q7-3, living cells; Q7-4, early apoptotic cells. TEXT PRINTED IN THE PICTURE: (B) Dihydro BA: Q7-1 0.96% (59 μM); Q7-2 12.11% (59 μM); Q7-3 80.09% (59 μM); Q7-4 6.84% (59 μM) | (C) Dihydro BA: Q7-1 2.34% (59 μM); Q7-2 20.53% (59 μM); Q7-3 73.11% (59 μM); Q7-4 4.02% (59 μM) | (D) Compound 15: Q7-1 3.08% (4 μM); Q7-2 2.24% (4 μM); Q7-3 92.34% (4 μM); Q7-4 2.34% (4 μM) | (E) Compound 15: Q7-1 5.53% (4 μM); Q7-2 91.79% (4 μM); Q7-3 0.58% (4 μM); Q7-4 2.10% (4 μM) | (F) Compound 15c: Q7-1 1.51% (4 μM); Q7-2 2.64% (4 μM); Q7-3 84.92% (4 μM); Q7-4 10.93% (4 μM) | (G) Compound 15c: Q7-1 21.72% (4 μM); Q7-2 16.54% (4 μM); Q7-3 54.49% (4 μM); Q7-4 7.25% (4 μM) | (H) Compound 18c: Q7-1 1.48% (4 μM); Q7-2 3.70% (4 μM); Q7-3 91.14% (4 μM); Q7-4 3.67% (4 μM) | (I) Compound 18c: Q7-1 20.73% (4 μM); Q7-2 14.32% (4 μM); Q7-3 58.16% (4 μM); Q7-4 6.79% (4 μM) | (J) Compound 20c: Q7-1 3.78% (8 μM); Q7-2 1.72% (8 μM); Q7-3 92.26% (8 μM); Q7-4 2.24% (8 μM) | (K) Compound 20c: Q7-1 6.09% (8 μM); Q7-2 7.35% (8 μM); Q7-3 78.36% (8 μM); Q7-4 8.20% (8 μM) DOUBTS OF THE COPYIST ABOUT THIS PICTURE: Panel A (Control, untreated cells: Q7-1 3.75%, Q7-2 0.00%, Q7-3 96.24%, Q7-4 0.01%) left out of lines because it is not a substance / Dihydro BA panel B, Q7-3: 80.09% partly overlaid by plot points, 80.09 or 80.03 / Dihydro BA panel C, Q7-3: 73.11% partly overlaid by plot points / Compound 18c panel I, Q7-3: 58.16% small print, 58.16 or 58.18 / Compound 15 panel E, Q7-3: 0.58% small print, 0.58 or 0.56

[3] = at IC50 concentration (59 μM Dihydro BA; 4 μM 15, 15c, 18c; 8 μM 20c)

## CC(=O)O[C@H]1CC[C@@]2(C)C(CC[C@]3(C)C2CCC2C4C(C(C)C)CC[C@]4(C(=O)OCC(N)(CO)CO)CC[C@]23C)C1(C)C (stereo partly drawn) [Compound 15, 3β-[2-Amino-3-hydroxy-2-(hydroxymethyl)propyl]-3-O-acetyl-lupane-28-oate]
[1]
  IC50: 31 ± 0.29 µM
[2]; [3]
  late apoptotic cells (Q7-2): 91.7%

## CC(=O)O[C@H]1CC[C@@]2(C)C(CC[C@]3(C)C2CCC2C4C(C(C)C)CC[C@]4(C(=O)OCC(CO)(CO)NC(=N)N)CC[C@]23C)C1(C)C (stereo partly drawn) [Compound 15c, 3β-[2-Guanidine-3-hydroxy-2-(hydroxymethyl)propyl]-3-O-acetyl-lupane-28-oate hydrochloride]
[1]
  IC50: 27 ± 0.14 µM
[2]; [3]
  early apoptotic cells (Q7-4): 7.2%
  late apoptotic cells (Q7-2): 16.5%
  living (vital) cells (Q7-3): 54.5%
  necrotic cells (Q7-1): 21.7%
[2]; at IC50 concentration (59 μM Dihydro BA; 4 μM 15c; 8 μM 20c)
  total number of apoptotic cells (early + late): 23.7%
